In ChEMBL document CHEMBL3352569, “Design, synthesis and structure-activity relationship studies of novel sirtuin 2 (SIRT2) inhibitors with a benzamide skeleton” (Bioorg Med Chem, 2015):

Tests used:
[1] = target: T1, NAD-dependent protein deacetylase sirtuin-2 (Homo sapiens, UniProt Q8IXJ6); experiment: Inhibition of GST-tagged human recombinant SIRT2 (34 to 356 residues) expressed in Escherichia coli BL21 using Fluor de Lys-SIRT as substrate incubated for 60 mins prior to substrate addition measured after 45 mins by fluorimetric analysis
T1 sequence (Q8IXJ6 whole entry): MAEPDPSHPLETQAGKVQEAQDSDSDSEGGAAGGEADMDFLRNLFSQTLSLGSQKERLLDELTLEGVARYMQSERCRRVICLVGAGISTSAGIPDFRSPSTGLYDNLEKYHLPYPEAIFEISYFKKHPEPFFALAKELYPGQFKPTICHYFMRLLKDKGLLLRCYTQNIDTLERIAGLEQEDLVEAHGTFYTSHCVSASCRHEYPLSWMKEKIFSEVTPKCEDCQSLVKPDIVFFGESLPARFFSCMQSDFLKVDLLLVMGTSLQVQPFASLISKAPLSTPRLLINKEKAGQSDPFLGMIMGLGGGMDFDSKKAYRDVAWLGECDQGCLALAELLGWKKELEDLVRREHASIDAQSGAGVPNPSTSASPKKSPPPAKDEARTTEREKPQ

[2] = target: T2, NAD-dependent protein deacetylase sirtuin-2 (Homo sapiens) (UniProt Q8IXJ6); experiment: Inhibition of GST-tagged human recombinant SIRT2 (34 to 356 residues) expressed in Escherichia coli BL21 at 10 uM using Fluor de Lys-SIRT as substrate incubated for 60 mins prior to substrate addition measured after 45 mins by fluorimetric analysis
T2 sequence (whole entry): T1 sequence (Q8IXJ6 whole entry)

[3] = target: T2, NAD-dependent protein deacetylase sirtuin-2 (Homo sapiens); experiment: Inhibition of GST-tagged human recombinant SIRT2 (34 to 356 residues) expressed in Escherichia coli BL21 at 50 uM using Fluor de Lys-SIRT as substrate incubated for 60 mins prior to substrate addition measured after 45 mins by fluorimetric analysis
[4] = target: T3, NAD-dependent protein deacetylase sirtuin-1 (Homo sapiens, UniProt Q96EB6); experiment: Inhibition of human SIRT1
T3 sequence (Q96EB6 whole entry): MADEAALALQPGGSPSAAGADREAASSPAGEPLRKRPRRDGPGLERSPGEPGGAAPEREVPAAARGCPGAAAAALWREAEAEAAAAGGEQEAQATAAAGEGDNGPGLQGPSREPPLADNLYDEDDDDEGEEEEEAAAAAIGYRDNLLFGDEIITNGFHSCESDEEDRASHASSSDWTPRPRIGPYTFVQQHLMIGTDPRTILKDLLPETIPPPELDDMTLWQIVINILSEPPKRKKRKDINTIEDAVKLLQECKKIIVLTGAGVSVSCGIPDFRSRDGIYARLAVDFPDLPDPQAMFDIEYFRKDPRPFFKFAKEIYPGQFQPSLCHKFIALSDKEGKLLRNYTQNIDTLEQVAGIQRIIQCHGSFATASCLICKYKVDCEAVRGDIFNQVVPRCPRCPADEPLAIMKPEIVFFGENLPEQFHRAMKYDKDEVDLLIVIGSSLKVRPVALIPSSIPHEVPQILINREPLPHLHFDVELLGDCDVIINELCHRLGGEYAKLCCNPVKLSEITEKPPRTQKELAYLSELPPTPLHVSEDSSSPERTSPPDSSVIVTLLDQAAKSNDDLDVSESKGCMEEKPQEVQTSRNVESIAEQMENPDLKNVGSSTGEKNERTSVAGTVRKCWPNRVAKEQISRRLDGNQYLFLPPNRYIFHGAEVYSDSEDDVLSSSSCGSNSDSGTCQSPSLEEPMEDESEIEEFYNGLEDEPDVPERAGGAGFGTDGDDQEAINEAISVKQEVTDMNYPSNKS

[5] = target: T4, NAD-dependent protein deacetylase sirtuin-3, mitochondrial (Homo sapiens, UniProt Q9NTG7); experiment: Inhibition of human SIRT3
T4 sequence (Q9NTG7 whole entry): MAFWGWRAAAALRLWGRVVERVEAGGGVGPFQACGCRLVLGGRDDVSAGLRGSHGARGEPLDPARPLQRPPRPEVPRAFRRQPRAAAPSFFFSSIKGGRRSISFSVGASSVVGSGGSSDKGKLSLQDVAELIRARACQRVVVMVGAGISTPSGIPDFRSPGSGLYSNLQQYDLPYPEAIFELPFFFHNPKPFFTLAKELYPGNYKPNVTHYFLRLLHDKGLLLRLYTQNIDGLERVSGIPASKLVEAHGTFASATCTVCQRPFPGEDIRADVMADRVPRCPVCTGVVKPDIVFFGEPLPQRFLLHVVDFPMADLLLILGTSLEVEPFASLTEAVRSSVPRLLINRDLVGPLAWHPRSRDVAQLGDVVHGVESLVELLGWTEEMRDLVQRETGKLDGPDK

[6] = target: T2, NAD-dependent protein deacetylase sirtuin-2 (Homo sapiens); details: 25 uM
Description: Inhibition of human recombinant SIRT2 at 25 uM

[7] = target: T3, NAD-dependent protein deacetylase sirtuin-1; experiment: Inhibition of human recombinant SIRT1 using Fluor de Lys-SIRT as substrate incubated for 60 mins prior to substrate addition measured after 45 mins by fluorimetric analysis
[8] = target: T4, NAD-dependent protein deacetylase sirtuin-3, mitochondrial; experiment: Inhibition of human recombinant SIRT3 using Fluor de Lys-SIRT as substrate incubated for 60 mins prior to substrate addition measured after 45 mins by fluorimetric analysis

Compound | IC50 [1] [µM] | inhibition [2] [%] | inhibition [3] [%] | further results
O=C(Nc1ccncc1)c1cccc(-c2ccc3ccccc3c2)c1 | 16 | – | – | –
O=C(Nc1cc[nH]n1)c1cccc(-c2ccc3ccccc3c2)c1 | 42 | – | – | –
COc1ccccc1C(=O)Nc1cccc(NC(=O)c2ccccc2Br)c1 | – | 10 | 28 | –
O=C(Nc1cccc(-c2ccc3ccccc3c2)c1)c1ccccc1Br | – | 39 | 56 | –
O=C(Nc1ccccn1)c1cccc(-c2ccc3ccccc3c2)c1 | 22 | – | – | –
COc1ccc(C(=O)Nc2cccc(NC(=O)c3ccccc3Br)c2)cc1 | – | 10 | 31 | –
O=C(Nc1nc[nH]n1)c1cccc(-c2ccc3ccccc3c2)c1 | 57 | – | – | –
O=C(Nc1cnccn1)c1cccc(-c2ccc3ccccc3c2)c1 | 6.2 | – | – | –
COc1cccc(C(=O)Nc2cccc(NC(=O)c3ccccc3Br)c2)c1 | – | 4 | 19 | –
O=C(Nc1cccc(NC(=O)c2ccccc2)c1)c1ccccc1 | – | 3 | 10 | –
O=C(Nc1ccccc1[N+](=O)[O-])c1cccc(-c2ccc3ccccc3c2)c1 | – | 30 | 76 | –
Cc1ccccc1C(=O)Nc1cccc(NC(=O)c2ccccc2Br)c1 | – | 1 | 0 | –
O=C(Nc1cccc(NC(=O)c2cccc(Br)c2)c1)c1cc(Cl)cc(Cl)c1 | – | 0 | 10 | –
N#C/C(=C\c1ccc(-c2cc(Cl)ccc2Cl)o1)C(=O)Nc1cccc2ncccc12 | – | – | – | IC50 [4]: > 50 µM
O=C(Nc1cccc(Br)c1)c1cccc(S(=O)(=O)N2CCCCCC2)c1 | – | – | – | IC50 [4]: > 50 µM; IC50 [5]: > 50 µM
O=C(Nc1nccs1)c1cccc(-c2ccc3ccccc3c2)c1 | 12 | – | – | –
COc1cccc(NC(=O)c2cccc(-c3ccc4ccccc4c3)c2)c1 | – | 29 | 66 | –
O=C(Nc1ccccc1Br)c1cccc(-c2ccc3ccccc3c2)c1 | 5.3 | 64 | 95 | –
COc1ccc(C(=O)Nc2cccc(NC(=O)c3cccc(Br)c3)c2)cc1 | – | 4 | 0 | –
O=C(Nc1cccc(NC(=O)c2cccc(Br)c2)c1)c1cccc(Br)c1 | – | 7 | 12 | –

Compound | IC50 [1] [µM] | inhibition [2] [%] | inhibition [3] [%] | further results
O=C(Nc1cccc(Br)c1)c1cccc(-c2ccc3ccccc3c2)c1 | – | 23 | 46 | –
O=C(Nc1cccc(NC(=O)c2ccccc2Br)c1)c1cccc(Br)c1 | – | 0 | 19 | –
O=C(Nc1ccccc1)c1cccc(-c2ccc3ccccc3c2)c1 | – | 21 | 14 | –
Nc1ccccc1NC(=O)c1cccc(-c2ccc3ccccc3c2)c1 | – | 22 | 29 | –
COc1cccc(C(=O)Nc2cccc(-c3ccc4ccccc4c3)c2)c1 | – | 8 | 44 | –
Cc1cccc(C(=O)Nc2cccc(NC(=O)c3ccccc3Br)c2)c1 | – | 18 | 24 | –
O=C(Nc1cccnn1)c1cccc(-c2ccc3ccccc3c2)c1 | 0.9 | – | – | –
COc1ccccc1C(=O)Nc1cccc(-c2ccc3ccccc3c2)c1 | – | 10 | 47 | –
O=C(Nc1cccc(-c2ccc3ccccc3c2)c1)c1cccc(Br)c1 | – | 19 | 43 | –
O=C(Nc1ncccn1)c1cccc(-c2ccc3ccccc3c2)c1 | 13 | – | – | –
O=C(Nc1cccc(NC(=O)c2cc(C(F)(F)F)cc(C(F)(F)F)c2)c1)c1cccc(Br)c1 | – | 3 | 12 | –
COc1ccccc1C(=O)Nc1cccc(NC(=O)c2cccc(Br)c2)c1 | – | 11 | 39 | –
COc1ccccc1NC(=O)c1cccc(-c2ccc3ccccc3c2)c1 | 11 | 51 | 89 | –
O=C(Nc1cccc(NC(=O)c2ccccc2Br)c1)c1ccccc1 | – | 8 | 28 | –
CC(C(=O)Nc1cccc(/N=C/c2c(O)ccc3ccccc23)c1)c1ccccc1 (centres undefined) | – | – | – | inhibition [6]: 80%
O=C(Nc1cccc(NC(=O)c2ccccc2Br)c1)c1ccccc1Br | – | 3 | 49 | –
O=C(Nc1cccnc1)c1cccc(-c2ccc3ccccc3c2)c1 | 3.3 | – | – | –
O=C(Nc1ccnnc1)c1cccc(-c2ccc3ccccc3c2)c1 | 6.3 | – | – | –
O=C(Nc1cnccc1Br)c1cccc(-c2ccc3ccccc3c2)c1 | 0.6 | – | – | IC50 [7]: > 100 µM; IC50 [8]: > 100 µM
